Experimental data: ChEMBL document CHEMBL1201862, “PubChem BioAssay data set” (2004)
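Cultured in 96-well plates, cells were exposed to test compound for 48 hours across five concentrations. At the GI50, growth is halved.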 Activity calls are given as the source filed them. Rule as the data show it: active = GI50 up to about 1.1 µM and inactive = higher.

Legend:
Assay in all cases: NCI tumour cell line growth inhibition, 48 h
ACHN = system: ACHN
CAKI-1 = system: CAKI-1
CCRF-CEM = system: CCRF-CEM
COLO 205 = system: COLO 205
DU-145 = system: DU-145
HOP-92 = system: HOP-92
KM12 = system: KM12
LOX IMVI = system: LOX IMVI
M14 = system: M14
MDA-MB-231 = system: MDA-MB-231
Malme-3M = system: Malme-3M
NCI-H460 = system: NCI-H460
OVCAR-4 = system: OVCAR-4
SF-268 = system: SF-268
SK-OV-3 = system: SK-OV-3
SN12C = system: SN12C
SNB-19 = system: SNB-19
SW-620 = system: SW-620
UACC-62 = system: UACC-62
UO-31 = system: UO-31

Row | SMILES | GI50 (ACHN) | GI50 (CAKI-1) | GI50 (CCRF-CEM) | GI50 (COLO 205) | GI50 (DU-145) | GI50 (HOP-92) | GI50 (KM12) | GI50 (LOX IMVI) | GI50 (M14) | GI50 (MDA-MB-231) | GI50 (Malme-3M) | GI50 (NCI-H460) | GI50 (OVCAR-4) | GI50 (SF-268) | GI50 (SK-OV-3) | GI50 (SN12C) | GI50 (SNB-19) | GI50 (SW-620) | GI50 (UACC-62) | GI50 (UO-31)
1 | COc1cc2nc(-c3ccccc3)cc(O)c2cc1OC | 41.1 µM (inactive) | 23.6 µM (inactive) | 8 µM (inactive) | 4.2 µM (inactive) | 54 µM (inactive) | 33.7 µM (inactive) | 3.81 µM (inactive) | 10.7 µM (inactive) | 9.02 µM (inactive) | 26.7 µM (inactive) | > 50.6 µM (inactive) | 11.2 µM (inactive) | > 73.3 µM (inactive) | 41.6 µM (inactive) | 35.6 µM (inactive) | 31.4 µM (inactive) | 25.2 µM (inactive) | 10.8 µM (inactive) | 10.8 µM (inactive) | 52 µM (inactive)
2 | CO/N=C(\C)c1ccc(Nc2c3ccccc3nc3occc23)cc1 | 0.568 µM (active) | 0.318 µM (active) | 0.47 µM (active) | 0.302 µM (active) | 1.07 µM (active) | 12.9 µM (inactive) | 0.201 µM (active) | 0.59 µM (active) | 0.397 µM (active) | 0.741 µM (active) | 0.313 µM (active) | 0.426 µM (active) | 0.902 µM (active) | 0.718 µM (active) | 1.16 µM (inactive) | 1.4 µM (inactive) | 2.05 µM (inactive) | 0.33 µM (active) | 0.38 µM (active) | 2.42 µM (inactive)
3 | Cc1ccc(NC(=O)c2cccc(OP(=O)(Nc3ccc(C)cc3)Nc3ccc(C)cc3)c2)cc1 | 4 µM (inactive) | 12.8 µM (inactive) | 13.8 µM (inactive) | 2.32 µM (inactive) | 53.3 µM (inactive) | 3.23 µM (inactive) | 5.5 µM (inactive) | 10.9 µM (inactive) | 3.21 µM (inactive) | 3.32 µM (inactive) | 4.83 µM (inactive) | 3.88 µM (inactive) | 14 µM (inactive) | 43.1 µM (inactive) | 24.9 µM (inactive) | 16.3 µM (inactive) | 35.1 µM (inactive) | 8.18 µM (inactive) | 20.3 µM (inactive) | 4.53 µM (inactive)
4 | C=C1C(=O)OC2/C=C(CO)/C=C\C3OC3(C)CC(OC(=O)/C(C)=C/COC(C)=O)C12 (stereo not given) | 3.14 µM (inactive) | 2.76 µM (inactive) | 1.26 µM (inactive) | 1.6 µM (inactive) | 16.6 µM (inactive) | 2.62 µM (inactive) | 5.28 µM (inactive) | 1.34 µM (inactive) | 2.3 µM (inactive) | 2.66 µM (inactive) | 1.77 µM (inactive) | 5.69 µM (inactive) | 3.99 µM (inactive) | 4.04 µM (inactive) | 17.8 µM (inactive) | 2.21 µM (inactive) | 12.5 µM (inactive) | 1.37 µM (inactive) | 2.2 µM (inactive) | 6.11 µM (inactive)
5 | CCCCC(=O)OC[n+]1ccc(-c2c(COC(=O)NC(C)C)c(COC(=O)NC(C)C)c3n2CCC3)cc1 | 34.6 µM (inactive) | 24.9 µM (inactive) | 33.7 µM (inactive) | > 80.9 µM (inactive) | > 70.5 µM (inactive) | > 84.1 µM (inactive) | > 100 µM (inactive) | 47.9 µM (inactive) | > 77.4 µM (inactive) | > 67.6 µM (inactive) | > 100 µM (inactive) | 42.3 µM (inactive) | > 100 µM (inactive) | 57.9 µM (inactive) | > 100 µM (inactive) | 40.3 µM (inactive) | > 100 µM (inactive) | > 76.2 µM (inactive) | 30.9 µM (inactive) | > 100 µM (inactive)
6 | COC(OC)(c1ccccc1)C(I)I | 16.5 µM (inactive) | 11.8 µM (inactive) | 2.31 µM (inactive) | 8.69 µM (inactive) | 24.5 µM (inactive) | 13.4 µM (inactive) | 16.3 µM (inactive) | 13.4 µM (inactive) | 5.37 µM (inactive) | 18.9 µM (inactive) | 3.15 µM (inactive) | 16.7 µM (inactive) | 14.2 µM (inactive) | 19.3 µM (inactive) | 12.1 µM (inactive) | 20.1 µM (inactive) | 35.3 µM (inactive) | 2.92 µM (inactive) | 13.4 µM (inactive) | 16.3 µM (inactive)
7 | COc1cc(O)c2c(=O)c3c(C)cccc3n(C)c2c1 | > 10 µM (inactive) | > 10 µM (inactive) | > 10 µM (inactive) | > 10 µM (inactive) | > 10 µM (inactive) | > 10 µM (inactive) | > 10 µM (inactive) | > 10 µM (inactive) | > 10 µM (inactive) | > 10 µM (inactive) | > 10 µM (inactive) | > 10 µM (inactive) | > 10 µM (inactive) | > 10 µM (inactive) | > 10 µM (inactive) | > 10 µM (inactive) | > 10 µM (inactive) | > 10 µM (inactive) | > 10 µM (inactive) | > 10 µM (inactive)
8 | O=c1c2ccccc2n2cnc3ccc(NCCNCCO)c1c32 | 0.836 µM (active) | 2.43 µM (inactive) | 1.22 µM (inactive) | 0.834 µM (active) | 0.384 µM (active) | 4.24 µM (inactive) | 1.17 µM (inactive) | 1.11 µM (active) | 2.71 µM (inactive) | 2.31 µM (inactive) | 2.36 µM (inactive) | 0.536 µM (active) | 1.44 µM (inactive) | 1.46 µM (inactive) | 2.99 µM (inactive) | 1.51 µM (inactive) | 3.78 µM (inactive) | 0.589 µM (active) | 2.31 µM (inactive) | 2.87 µM (inactive)
9 | Fc1ccc(/N=N/N2CCCC2)cc1 | 68.4 µM (inactive) | > 100 µM (inactive) | 52.2 µM (inactive) | > 100 µM (inactive) | 52.5 µM (inactive) | > 100 µM (inactive) | 92.3 µM (inactive) | 4.94 µM (inactive) | > 100 µM (inactive) | > 100 µM (inactive) | > 100 µM (inactive) | 15.7 µM (inactive) | > 100 µM (inactive) | > 100 µM (inactive) | > 100 µM (inactive) | 51.1 µM (inactive) | > 100 µM (inactive) | > 100 µM (inactive) | 7.08 µM (inactive) | 27 µM (inactive)
10 | O=C1/C(=C\c2cccc(Oc3ccccc3)c2)SC(c2ccccc2)N1c1ccccc1 (stereo not given) | > 100 µM (inactive) | > 100 µM (inactive) | 22 µM (inactive) | > 100 µM (inactive) | > 100 µM (inactive) | 60.7 µM (inactive) | 46.9 µM (inactive) | 31.9 µM (inactive) | 71.6 µM (inactive) | > 100 µM (inactive) | > 100 µM (inactive) | > 100 µM (inactive) | 75.2 µM (inactive) | > 100 µM (inactive) | > 100 µM (inactive) | > 100 µM (inactive) | 58.1 µM (inactive) | 12.4 µM (inactive) | 43.3 µM (inactive) | > 100 µM (inactive)
